Patent US11707454B2, “Topical roflumilast formulation having antifungal properties” (ARCUTIS BIOTHERAPEUTICS, INC., priority 2020, dated 2023)
Where two headings read alike, the source gives them in different places.

How the values were obtained:
Assay type in all cases: cell-based
C. albicans (ATCC 90028) = experiment: in vitro micro-dilution susceptibility assay (method of Rojas); conditions: Candida albicans, read-out: minimum inhibition concentration (MIC)
Method: (§1) The in vitro susceptibility of Malassezia species to roflumilast was determined utilizing three Candida species as internal control isolates for all testing. These three isolates were C. albicans American Type Culture Collection (ATCC) 90028, C. krusei (ATCC 6258) and C. parapsilosis (ATCC 22019). In addition to testing roflumilast all susceptibility assays were conducted using ketoconazole and hydrocortisone as positive and negative control compounds, respectively. All assays were placed within a humidified incubator set to 32° C. for a total of seven days. Each assay was evaluated after 12 hours of incubation and, every 24 hours post incubation for a total of seven days. The assays were evaluated for visual growth of each pathogen in the no treatment control as well as determination of minimum inhibition concentration (MIC) values. The concentration that provides a 3-log10 CFU/mL reduction in fungal burden from baseline at day 0 was defined as the minimum fungicidal concentration (MHC) and was determined by quantifying fungal burdens found in the microplate at day seven.
(§2) The method of Rojas (Rojas F D, et al. Antifungal susceptibility of Malassezia furfur, Malassezia sympodialis, and Malassezia globose to azole drugs and amphotericin B evaluated using a broth microdilution method. 2014. Medical Mycology. 52:641-646) was used in which the liquid broth medium was RPMI 1640 with added 1.8% glucose, 1% peptone, 0.5% ox-bile, 0.5% malt extract, 1% glycerol, 0.5% Tween 40 and 0.05% Tween 80. Round bottom 96 well microplates were used. The inoculums were prepared in sterile saline and diluted to a final targeted concentration of 0.5×10^5 to 2.5×10^5 CFU/mL in supplemented RPMI. […] For the internal control isolate C. parapsilosis (ATCC 22019) the expected CLSI values for ketoconazole of 0.03-0.25 (at 24 hours) and 0.06-0.5 (at 48 hours) did agree with the 2-day value (Table A) of 0.5.

C. krusei (ATCC 6258) = experiment: as above; conditions: Pichia kudriavzevii, read-out: minimum inhibition concentration (MIC)
Method: as §1, §2

[1] = test system: C. parapsilosis (ATCC 22019); experiment: as above; conditions: Lodderomyces parapsilosis, C. parapsilosis (22019), read-out: minimum inhibition concentration (MIC)
Method: as §1, §2

M. furfur (ATCC 12078) = experiment: as above; conditions: for MIC: Malassezia furfur, read-out: minimum inhibition concentration (MIC)
Method: as §1, §2

M. furfur (ATCC 14521) = experiment: as above; conditions: for MIC: Malassezia furfur, read-out: minimum inhibition concentration (MIC)
Method: as §1, §2

M. furfur (ATCC 44344) = experiment: as above; conditions: for MIC: Malassezia furfur, read-out: minimum inhibition concentration (MIC)
Method: as §1, §2

[2] = test system: M. globose (ATCC MYA-4889); experiment: as above; conditions: for MIC: read-out: minimum inhibition concentration (MIC)
Method: as §1, §2

[3] = test system: M. restricta (ATCC MYA-4611); experiment: as above; conditions: for MIC: read-out: minimum inhibition concentration (MIC)
Method: as §1, §2

[4] = test system: Malassezia species and Candida species; experiment: in vitro micro-dilution susceptibility assay, summary over all isolates; conditions: negative control
Method: as §1, with “seven. […]” for “seven.”

**Q.** Which results are given for `C[C@]12CCC(=O)C=C1CC[C@@H]1[C@@H]2[C@@H](O)C[C@@]2(C)[C@H]1CC[C@]2(O)C(=O)CO` [Hydrocortisone]?
**A.** MIC (C. albicans (ATCC 90028); ATCC90028, 12 h, Time 0.5 days): > 1020 µg/mL; MIC (C. albicans (ATCC 90028); ATCC90028, 24 h, Time 1 days): > 1020 µg/mL; MIC (C. albicans (ATCC 90028); ATCC90028, 48 h, Time 2 days): > 1020 µg/mL; MIC (C. albicans (ATCC 90028); ATCC90028, 72 h, Time 3 days): > 1020 µg/mL; MIC (C. albicans (ATCC 90028); ATCC90028, 96 h, Time 4 days): > 1020 µg/mL; MIC (C. albicans (ATCC 90028); ATCC90028, 120 h, Time 5 days): > 1020 µg/mL; MIC (C. albicans (ATCC 90028); ATCC90028, 144 h, Time 6 days): > 1020 µg/mL; MIC (C. albicans (ATCC 90028); ATCC90028, 168 h, Time 7 days): > 1020 µg/mL; MIC (C. krusei (ATCC 6258); ATCC6258, 12 h, Time 0.5 days): > 1020 µg/mL; MIC (C. krusei (ATCC 6258); ATCC6258, 24 h, Time 1 days): > 1020 µg/mL; MIC (C. krusei (ATCC 6258); ATCC6258, 48 h, Time 2 days): > 1020 µg/mL; MIC (C. krusei (ATCC 6258); ATCC6258, 72 h, Time 3 days): > 1020 µg/mL; MIC (C. krusei (ATCC 6258); ATCC6258, 96 h, Time 4 days): > 1020 µg/mL; MIC (C. krusei (ATCC 6258); ATCC6258, 120 h, Time 5 days): > 1020 µg/mL; MIC (C. krusei (ATCC 6258); ATCC6258, 144 h, Time 6 days): > 1020 µg/mL; MIC (C. krusei (ATCC 6258); ATCC6258, 168 h, Time 7 days): > 1020 µg/mL; MIC ([1]; ATCC22019, 12 h, Time 0.5 days): > 1020 µg/mL; MIC ([1]; ATCC22019, 24 h, Time 1 days): > 1020 µg/mL; MIC ([1]; ATCC22019, 48 h, Time 2 days): > 1020 µg/mL; MIC ([1]; ATCC22019, 72 h, Time 3 days): > 1020 µg/mL; MIC ([1]; ATCC22019, 96 h, Time 4 days): > 1020 µg/mL; MIC ([1]; ATCC22019, 120 h, Time 5 days): > 1020 µg/mL; MIC ([1]; ATCC22019, 144 h, Time 6 days): > 1020 µg/mL; MIC ([1]; ATCC22019, 168 h, Time 7 days): > 1020 µg/mL; MIC (M. furfur (ATCC 12078); ATCC12078, 48 h, Time 2 days): > 1020 µg/mL; MIC (M. furfur (ATCC 12078); ATCC12078, 72 h, Time 3 days): > 1020 µg/mL; MIC (M. furfur (ATCC 12078); ATCC12078, 96 h, Time 4 days): > 1020 µg/mL; MIC (M. furfur (ATCC 12078); ATCC12078, 120 h, Time 5 days): > 1020 µg/mL; MIC (M. furfur (ATCC 12078); ATCC12078, 144 h, Time 6 days): > 1020 µg/mL; MIC (M. furfur (ATCC 12078); ATCC12078, 168 h, Time 7 days): > 1020 µg/mL; minimum inhibition concentration (MIC) (M. furfur (ATCC 12078); Time 0.5 days): NGO; minimum inhibition concentration (MIC) (M. furfur (ATCC 12078); Time 1 days): NGO; MIC (M. furfur (ATCC 14521); ATCC14521, 48 h, Time 2 days): > 1020 µg/mL; MIC (M. furfur (ATCC 14521); ATCC14521, 72 h, Time 3 days): > 1020 µg/mL; MIC (M. furfur (ATCC 14521); ATCC14521, 96 h, Time 4 days): > 1020 µg/mL; MIC (M. furfur (ATCC 14521); ATCC14521, 120 h, Time 5 days): > 1020 µg/mL; MIC (M. furfur (ATCC 14521); ATCC14521, 144 h, Time 6 days): > 1020 µg/mL; MIC (M. furfur (ATCC 14521); ATCC14521, 168 h, Time 7 days): > 1020 µg/mL; minimum inhibition concentration (MIC) (M. furfur (ATCC 14521); Time 0.5 days): NGO; minimum inhibition concentration (MIC) (M. furfur (ATCC 14521); Time 1 days): NGO; MIC (M. furfur (ATCC 44344); ATCC44344, 48 h, Time 2 days): > 1020 µg/mL; MIC (M. furfur (ATCC 44344); ATCC44344, 72 h, Time 3 days): > 1020 µg/mL; MIC (M. furfur (ATCC 44344); ATCC44344, 96 h, Time 4 days): > 1020 µg/mL; MIC (M. furfur (ATCC 44344); ATCC44344, 120 h, Time 5 days): > 1020 µg/mL; MIC (M. furfur (ATCC 44344); ATCC44344, 144 h, Time 6 days): > 1020 µg/mL; MIC (M. furfur (ATCC 44344); ATCC44344, 168 h, Time 7 days): > 1020 µg/mL; minimum inhibition concentration (MIC) (M. furfur (ATCC 44344); Time 0.5 days): NGO; minimum inhibition concentration (MIC) (M. furfur (ATCC 44344); Time 1 days): NGO; MIC ([2]; 120 h, Time 5 days): > 1020 µg/mL; MIC ([2]; 144 h, Time 6 days): > 1020 µg/mL; MIC ([2]; 168 h, Time 7 days): > 1020 µg/mL; minimum inhibition concentration (MIC) ([2]; Time 0.5 days): NGO; minimum inhibition concentration (MIC) ([2]; Time 1 days): NGO; minimum inhibition concentration (MIC) ([2]; Time 2 days): NGO; minimum inhibition concentration (MIC) ([2]; Time 3 days): NGO; minimum inhibition concentration (MIC) ([2]; Time 4 days): NGO; MIC ([3]; 120 h, Time 5 days): > 1020 µg/mL; MIC ([3]; 144 h, Time 6 days): > 1020 µg/mL; MIC ([3]; 168 h, Time 7 days): > 1020 µg/mL; minimum inhibition concentration (MIC) ([3]; Time 0.5 days): NGO; minimum inhibition concentration (MIC) ([3]; Time 1 days): NGO; minimum inhibition concentration (MIC) ([3]; Time 2 days): NGO; minimum inhibition concentration (MIC) ([3]; Time 3 days): NGO; minimum inhibition concentration (MIC) ([3]; Time 4 days): NGO; anti-fungal activity (all isolates) [4]: no anti-fungal activity
